Test results as given in publication PMC12903857.
pEC50: −log10 of the molar value. Several values for one entry are separate records, joined by “and”; a condition that tells them apart may be missing. Equal values may be shown once.

What was measured:
[1] = tested on: pERK; test: Lumit immunoassay for pERK levels in HEK293T cells; format: cell-based; conditions: HEK293T, 24 h, EGF stimulation; 23 at 10 μM
[2] = biological target: T1, 14-3-3σ/C-RAF259 (Homo sapiens, UniProt P31947); test: Intact mass spectrometry assay with C-RAF259 phospho-peptide; format: binding; design: full-length for mass spectrometry and fluorescence anisotropy assays; made in house; host or cells: E. coli Rosetta 2(DE3)pLysS (14-3-3σ); peptides from Elim Biopharmaceuticals; conditions: 1 μM compound, 100 nM 14-3-3σ, 18 µM peptide
[3] = biological target: 14-3-3σ/C-RAF (Homo sapiens, UniProt P31947); conditions: HEK293T cells, mBU compound / mBU DMSO
Method: Stabilization of the interaction with a molecular glue was expected to lead to an increase in the intensity of the BRET signal.
Both cell lines were grown in
All compound treatments were 24 hours.
Brieﬂy, HEK293T cells were

[4] = biological target: 14-3-3σ/A-RAF214 (Homo sapiens, UniProt P31947); test: Intact mass spectrometry assay with A-RAF214 peptide; conditions: 1 μM compound, 100 nM 14-3-3σ, 16 µM peptide
Method: Ea ch compound was measured in triplicates, i n two i ndependent experi ments. Fluorescence anisotropy measurements were performed directly and a€er overnight incubaton at room temperature.
Fluorescence anisotropy measurements were performed a€er overnight incubaton at room temperature .

[5] = biological target: T1, 14-3-3σ/C-RAF259; test: FA protein titration, C-RAF259 peptide; conditions: appKd DMSO / appKd compound
Method: The following peptdes were used in the FA selectvity panel:
SOS1 pS1161: FITC-Ahx-PRRRPE{pS}APAESS-CONH2, TSC2 pS1254: FAM-Ahx-LY K S L { p S } V PA A S TA K-CONH2, ARHG2 pS886: FAM-Ahx-PVDPRRR{pS}LPAGDAL-CONH2.
Mass spectrometry dose response assays were performed on a Waters Acquity UPLC/ Xevo G2-XS Q-To f m a s s
samples prior to applicaton on the mass spectrometer. For 19-point MS dose responses, 50 mM compound stocks
transferred in the assay plates.
Assay buﬀer was TRIS (10 mM, pH 8.0) and ﬁnal volume per well was 50
μL, with ﬁnal top concentraton of compounds dose response series at 1 mM.
24 μL of sample were needed for the tme-course
(BSA; Sigma-Aldrich). Final DMSO in the assay was less than 1%. Diluton series of 14-3-3 proteins or compounds
dispensed in the assay plates. […] Ea ch compound was measured in triplicates, i n two i ndependent experi ments. Fluorescence anisotropy measurements were performed directly and a€er overnight incubaton at room temperature. The high
(10 nM) and DMSO or compound (100 µM). Fluorescence anisotropy measurements were performed a€er overnight incubaton at room temperature .

[6] = tested on: N-RAS Q61L/C-RAF; conditions: HEK293T; 100% = DMSO mBU, 0% = N-RAS/C-RAF R89L
[7] = biological target: T1, 14-3-3σ/C-RAF259; test: Fluorescence anisotropy (FA) compound titration; format: binding; conditions: 10 nM C-RAF259-FAM 10-mer, 5 μΜ 14-3-3σ, overnight; read-out: Compound titrations EC50 value C-RAF259
[8] = biological target: T2, 14-3-3σ (Homo sapiens, UniProt P31947); test: Intact mass spectrometry assay, apo (no peptide); format: binding; design: full-length for mass spectrometry and fluorescence anisotropy assays; made in house; host or cells: E. coli Rosetta 2(DE3)pLysS, pPROEX HTb vector; conditions: 1 μM compound, 100 nM 14-3-3σ
T2 sequence (P31947 1-248): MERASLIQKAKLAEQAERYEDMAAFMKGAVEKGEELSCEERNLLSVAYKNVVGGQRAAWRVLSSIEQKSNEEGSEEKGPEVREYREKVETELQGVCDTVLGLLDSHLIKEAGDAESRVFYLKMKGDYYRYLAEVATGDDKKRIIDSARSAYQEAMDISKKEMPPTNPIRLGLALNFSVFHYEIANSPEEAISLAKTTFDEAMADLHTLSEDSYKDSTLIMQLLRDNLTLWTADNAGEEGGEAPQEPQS

[9] = biological target: T3, 14-3-3σ/B-RAF365 (Homo sapiens, UniProt P31947); test: Intact mass spectrometry assay with B-RAF365 peptide; format: binding; conditions: 1 μM compound, 100 nM 14-3-3σ, 5 µM peptide
T3 construct: full-length for mass spectrometry and fluorescence anisotropy assays; made in house; host or cells: E. coli Rosetta 2(DE3)pLysS (14-3-3σ); peptides from Elim Biopharmaceuticals

14-3-3σ/C-RAF, sequence (P04049 whole entry partner, one chain of several): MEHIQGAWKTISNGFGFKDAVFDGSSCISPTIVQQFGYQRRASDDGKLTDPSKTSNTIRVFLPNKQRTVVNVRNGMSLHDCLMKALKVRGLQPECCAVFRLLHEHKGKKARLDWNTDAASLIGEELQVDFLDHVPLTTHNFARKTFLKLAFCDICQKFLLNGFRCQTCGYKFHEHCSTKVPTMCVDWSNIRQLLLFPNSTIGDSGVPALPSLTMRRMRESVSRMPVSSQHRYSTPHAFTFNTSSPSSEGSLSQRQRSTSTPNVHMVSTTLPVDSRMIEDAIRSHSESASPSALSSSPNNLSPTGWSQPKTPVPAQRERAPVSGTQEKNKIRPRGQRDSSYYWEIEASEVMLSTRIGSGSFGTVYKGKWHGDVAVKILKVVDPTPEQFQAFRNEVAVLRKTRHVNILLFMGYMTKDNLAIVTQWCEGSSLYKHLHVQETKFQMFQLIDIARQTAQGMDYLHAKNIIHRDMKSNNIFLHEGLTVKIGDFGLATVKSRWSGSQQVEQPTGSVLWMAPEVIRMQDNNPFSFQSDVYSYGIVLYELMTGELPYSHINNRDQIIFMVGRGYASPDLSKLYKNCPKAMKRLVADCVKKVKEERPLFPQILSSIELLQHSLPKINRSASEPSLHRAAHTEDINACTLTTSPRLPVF

`O=C(CCl)NCC1CCN(S(=O)(=O)Cc2cccc(F)c2)CC1` [Compound 8] was tested, and the “effect on phosphorylation of ERK” value [1] was “No effect”, the “% bound, C-RAF259 (11mer), 1h” value ([2]; 1 h) was 2.9% and 0% and the “% bound, C-RAF259 (15mer), 1h” value ([2]; 1 h) was 0%. For the same compound, the “% bound, C-RAF259 (11mer), 8h” value ([2]; 8 h) was 5.6% and 0%, the “% bound, C-RAF259 (15mer), 8h” value ([2]; 8 h) was 0% and the “% bound, C-RAF259 (11mer), 16h” value ([2]; 16 h) was 5.6%. The “% bound, C-RAF259 (15mer), 16h” value ([2]; 16 h) was 0%, the “% bound, C-RAF259 (11mer), 24h” value ([2]; 24 h) was 5.6% and 2.9% and the “% bound, C-RAF259 (15mer), 24h” value ([2]; 24 h) was 0%. For the same compound, the “14-3-3/C-RAF NanoBRET fold stab.” value [3] was “No increase”, the “% bound, A-RAF214 (15mer), 1h” value ([4]; 1 h) was 0% and the “% bound, A-RAF214 (15mer), 8h” value ([4]; 8 h) was 0%. The “% bound, A-RAF214 (15mer), 16h” value ([4]; 16 h) was 0%, the “% bound, A-RAF214 (15mer), 24h” value ([4]; 24 h) was 0% and the “Fold stabilization (100 µM compound), C-RAF259 (10mer)” value [5] was “lacked an effect”. For the same compound, the “Fold stabilization (100 µM compound), C-RAF259 (10mer)” value ([5]; listed as (8)) was 1 fold, the “reduction of the N-RAS Q61L/C-RAF interaction” value [6] was “did not affect” and the pEC50 [7] was less than 3.00. The “% bound, APO, 1h” value ([8]; 1 h) was 0%, the “% bound, APO, 8h” value ([8]; 8 h) was 0% and the “% bound, APO, 16h” value ([8]; 16 h) was 1.9%. The “% bound, APO, 24h” value ([8]; 24 h) was 2.9%, the “% bound, B-RAF365 (10mer), 1h” value ([9]; 1 h) was 0% and the “% bound, B-RAF365 (15mer), 1h” value ([9]; 1 h) was 0%. The “% bound, B-RAF365 (10mer), 8h” value ([9]; 8 h) was 0%, the “% bound, B-RAF365 (15mer), 8h” value ([9]; 8 h) was 0% and the “% bound, B-RAF365 (10mer), 16h” value ([9]; 16 h) was 2.5%. For the same compound, the “% bound, B-RAF365 (15mer), 16h” value ([9]; 16 h) was 0.9%, the “% bound, B-RAF365 (10mer), 24h” value ([9]; 24 h) was 2.5% and the “% bound, B-RAF365 (15mer), 24h” value ([9]; 24 h) was 3.8%.
